Reference: US20140171424A1, “HYPERTENSION AND HYPERURICEMIA” (ARDEA BIOSCIENCES, INC., priority 2011, published 2014)
Several values for one entry are separate records, joined by “and”; a condition that tells them apart may be missing. Equal values may be shown once. Read-outs that look alike come from different tables or passages of the source. One block for each compound: values may come before it.

Legend:
OAT4 [1] = biological target: T1, OAT4 (Homo sapiens, UniProt Q9NSA0); details: read-out: IC50, inhibition of OAT4 uptake of 3H-estrone sulfate; cited from earlier work
T1 sequence (Q9NSA0 1-550): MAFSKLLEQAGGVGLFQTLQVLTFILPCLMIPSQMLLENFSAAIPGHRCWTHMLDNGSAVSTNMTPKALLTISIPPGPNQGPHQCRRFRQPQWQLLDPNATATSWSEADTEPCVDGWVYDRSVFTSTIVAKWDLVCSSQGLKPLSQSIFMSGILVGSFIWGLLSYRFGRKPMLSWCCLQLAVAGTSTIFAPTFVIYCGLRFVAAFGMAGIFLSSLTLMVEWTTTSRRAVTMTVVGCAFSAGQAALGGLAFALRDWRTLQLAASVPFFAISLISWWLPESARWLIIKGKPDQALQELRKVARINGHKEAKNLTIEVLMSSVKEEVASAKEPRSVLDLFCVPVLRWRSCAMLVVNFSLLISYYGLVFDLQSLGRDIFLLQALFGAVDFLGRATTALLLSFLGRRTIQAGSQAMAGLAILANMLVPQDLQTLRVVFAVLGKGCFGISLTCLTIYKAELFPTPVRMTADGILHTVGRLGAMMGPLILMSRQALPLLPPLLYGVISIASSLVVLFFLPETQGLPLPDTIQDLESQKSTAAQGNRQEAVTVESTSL

OAT4 [2] = biological target: T1, OAT4; assay: OAT4 urate (14C-uric acid) transport in transfected HEK293/293T cells; type: cell-based; design: expressed in transfected cells; details: for OAT4 transport activity of 14C-uric acid: UA 100 μM, drug 100 μM, 5 min incubation, OAT4-expressing HEK293 cells
Protocol: (§1) For cultured cells, HEK293 cells stably expressing the transporters were produced through transfection of DNA constructs carrying the transporters, antibiotic selection, and clonal selection of clones with high transporter activity. Alternatively, cells transiently expressing the transporters were produced by reverse transfection of HEK293T cells. Transfectants were plated at high density onto poly-L-lysine coated multiwell plates and assayed 1-2 days later.

OAT4 [3] = biological target: T1, OAT4; assay: 3H-Estrone sulphate (ES) transport in 293T cells stably expressing OAT4; type: cell-based; design: expressed in transfected cells; details: 1 mM HCTZ, varying concentrations of Lesinurad
Protocol: as §1, with “later. Results were similar for stable and transient expressing cells.” for “later.”

OAT4 [4] = biological target: T1, OAT4; details: cited from earlier work; for effect on OAT4 uric acid transport activity: J. Am. Soc. Nephrol. 18:430 and 18:3101, 2007
[5] = Clinical phase 2 study in gout patients not adequately responding to allopurinol (sUA <6 mg/dL responders); type: in vivo, human; details: Week 4; Lesinurad added to allopurinol regimen; patients receiving thiazide diuretic
Protocol: FIG. 10A represents a schematic of a clinical phase 2 study design. The study was a 4-week, double-blind, placebo-controlled clinical trial in 208 gout patients who were not adequately responding to allopurinol with serum urate (sUA)≧6 mg/dL while receiving a stable dose of allopurinol for at least 6 weeks. One of three doses of Lesinurad or matching placebo was added to the patients allopurinol regimen. The primary endpoint of the study was mean reduction in sUA at Week 4, with the key secondary endpoint the proportion of subjects with sUA <6.0 mg/dL at Week 4. A small number of patients in this trial received a thiazide diuretic during the treatment period; their response rates were compared to those patients not receiving concomitant thiazide diuretics and the results presented in FIG. 10B.

URAT1 = biological target: T2, URAT1 (Homo sapiens, UniProt Q96S37); assay: URAT1 UA transport in 293T cells; type: cell-based; details: 293T cells expressing URAT1 and/or OAT4; varying concentrations
T2 construct: expressed in transfected cells; host or cells: 293T cells
T2 sequence (Q96S37 1-553): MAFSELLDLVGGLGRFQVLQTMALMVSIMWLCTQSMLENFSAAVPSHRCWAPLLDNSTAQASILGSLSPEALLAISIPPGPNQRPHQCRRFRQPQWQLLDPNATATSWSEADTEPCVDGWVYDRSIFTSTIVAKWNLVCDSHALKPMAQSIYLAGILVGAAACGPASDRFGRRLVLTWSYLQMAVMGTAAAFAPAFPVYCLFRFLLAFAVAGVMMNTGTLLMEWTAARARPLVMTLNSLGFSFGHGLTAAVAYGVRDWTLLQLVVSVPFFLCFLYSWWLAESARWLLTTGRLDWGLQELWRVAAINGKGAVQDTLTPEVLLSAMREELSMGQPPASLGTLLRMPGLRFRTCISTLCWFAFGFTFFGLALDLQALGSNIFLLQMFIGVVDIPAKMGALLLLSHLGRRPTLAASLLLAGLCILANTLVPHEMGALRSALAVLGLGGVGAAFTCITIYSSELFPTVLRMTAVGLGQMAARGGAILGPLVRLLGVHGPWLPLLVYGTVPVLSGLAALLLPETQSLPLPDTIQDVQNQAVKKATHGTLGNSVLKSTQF
Protocol: as §1

OAT4 [6] = biological target: T1, OAT4; assay: OAT4 transport of 6-carboxyfluorescein (CF) in transfected HEK293/HEK293T cells; type: cell-based; design: expressed in transfected cells; details: for OAT4 transport activity of 6-carboxyfluorescein: CF 5 μM, drug 100 μM, 5 min incubation, OAT4-expressing HEK293 cells
Protocol: as §1, with “later. Results were similar for stable and transient expressing cells.” for “later.”

SMILES: CCc1oc2cc(O)ccc2c1C(=O)c1cc(Br)c(O)c(Br)c1 [6-hydroxybenzbromarone]
IC50 (OAT4 [1]): 3.2 µM

IC50 (OAT4 [2]; varying amounts of drug, read-out: OAT4 IC50 (OAT4 urate transport, cpm)): 10 µM
SMILES: CCc1oc2ccccc2c1C(=O)c1cc(Br)c(O)c(Br)c1 [Benzbromarone]

SMILES: NS(=O)(=O)c1cc2c(cc1Cl)NCNS2(=O)=O [Hydrochlorothiazide, 6-Chloro-1,1-dioxo-3,4-dihydro-2H-1,2,4-benzothiadiazine-7-sulfonamide]
effect of HCTZ on Lesinurad-mediated inhibition of OAT4 ES transport (OAT4 [3]): no effect on Lesinurad-mediated inhibition of OAT4 transporter activity
effect on OAT4 uric acid transport activity (OAT4 [4]): increase OAT4 uric acid transport activity
increase of OAT4-mediated uric acid uptake (OAT4 [4]; one study): 2.6 fold

SMILES: O=C(O)CSc1nnc(Br)n1-c1ccc(C2CC2)c2ccccc12 [Lesinurad, 2-(5-bromo-4-(4-cyclopropylnaphthalen-l-yl)-4H-1,2,4-triazol-3-ylthio)acetic acid]
proportion of patients with sUA below 6 mg/dL, patients taking diuretics vs not [5]: patients receiving diuretics had responded well to Lesinurad
percent inhibition of UA transport, URAT1 (URAT1): inhibits URAT1 and OAT4 with similar potency

OAT4 transport activity of 14C-uric acid (OAT4 [2]): do not inhibit OAT4 transport activity
OAT4 transport activity of 6-carboxyfluorescein (OAT4 [6]): do not inhibit OAT4 transport activity
SMILES: Oc1ncnc2[nH]ncc12 [allopurinol]

OAT4 transport activity of 14C-uric acid (OAT4 [2]): do not inhibit OAT4 transport activity
OAT4 transport activity of 6-carboxyfluorescein (OAT4 [6]): do not inhibit OAT4 transport activity
SMILES: O=c1[nH]c(=O)c2c[nH]nc2[nH]1 [oxypurinol]

SMILES: Cc1cccc(Nc2ccncc2S(=O)(=O)NC(=O)NC(C)C)c1 [torasemide]
effect on OAT4 uric acid transport activity (OAT4 [4]): increase OAT4 uric acid transport activity

EC50 (OAT4 [6]; HEK293T cells transiently transfected with OAT4, CF substrate, 0, 0.5, 1, 2 nM cold uric acid, read-out: EC50 of cold uric acid as competitive substrate for OAT4 of CF): 900 µM and ~900 µM
SMILES: O=c1[nH]c(=O)c2[nH]c(=O)[nH]c2[nH]1 [uric acid]
